According to publication PMC7391726, “Fatty acid mimetic PBI-4547 restores metabolic homeostasis via GPR84 in mice with non-alcoholic fatty liver disease” (Scientific Reports, 2020):

Key:
PPARγ = biological target: T1, PPARγ (Homo sapiens, UniProt P37231); test: Cell-based GAL4 transactivation assay in HEK293 cells, PPARγ LBD
T1 construct: PPARγ (S176–Y477); expressed in transfected cells; host or cells: HEK293
T1 sequence (P37231 176-477 isoform P37231-2): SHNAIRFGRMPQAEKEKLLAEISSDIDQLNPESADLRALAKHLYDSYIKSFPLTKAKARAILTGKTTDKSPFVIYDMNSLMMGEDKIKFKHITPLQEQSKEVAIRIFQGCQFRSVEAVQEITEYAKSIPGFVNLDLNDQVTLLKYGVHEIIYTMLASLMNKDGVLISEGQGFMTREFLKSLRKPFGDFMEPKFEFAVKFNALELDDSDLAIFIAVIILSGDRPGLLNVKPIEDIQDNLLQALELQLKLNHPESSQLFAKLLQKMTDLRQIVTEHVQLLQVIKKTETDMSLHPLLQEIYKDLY
Description: To determine the transcriptional activity of PBI-4547, a cell-based GAL4 transactivation assay in HEK293 cells transfected with either PPARα, PPARδ, or PPARγ LBD was used. […] However, PBI-4547 only partially activated PPARγ transcriptional activity, with a relative maximal efficacy of 38% of the control agonist rosiglitazone.
Generation of the Gαi2, Gαq, and GPR40/β-arrestin-2 BRET biosensors have been described previously. A plasmid encoding the human GPR120-L (long isoform) cDNA was obtained from R&D Systems. GPR120-S (short isoform) was generated by replacing the BglII-BsgI fragment from GPR120-L by a gBlock gene fragment (Integrated DNA Technologies, Coralville, IA) lacking the DNA sequence corresponding to the extra 16 amino acids found in the third intracellular loop of the long form. The GPR120-GFP10 construct was generated by inserting PCR-amplified GPR120-S (without its stop codon) in place of GPR40 in the GPR40-GFP10 plasmid. […]
HEK293 cells were co-transfected with pGL4.35[luc2P/9XGAL4UAS/Hygro] and GAL4-PPAR-Rluc plasmids, and after 24 h of incubation were treated with compounds for 24 h. Luciferase activity was determined with the Dual Glo luciferase assay (Promega). Firefly luminescence was normalized to the constitutively expressed Renilla luminescence, and results expressed as fold induction of vehicle control.

HepG2 hepatocytes = test: Mitochondrial respiration (Seahorse OCR) in HepG2 hepatocytes; format: cell-based; details: HepG2, 24 h treatment
Method: Moreover, hepatic expression of several genes involved in glucose metabolism including Pklr (pyruvate kinase L/R), G6pc (glucose-6-phosphatase, catalytic) and Slc2a2 (Glut2) was normalized by PBI-4547 (Fig. 4B). […] To test this hypothesis, mitochondrial respiration in HepG2 hepatocytes was measured (Fig. 4C). […] However, it did decrease maximal respiration and ATP production, in agreement with the metabolomics results.
Figure 4 Effects of PBI-4547 on glucose and FA metabolism in liver. (A) Relative gene expression levels of glucose and FA-related metabolism in liver from STD, HFD and HFD + PBI-4547 mice. Data are presented as geometric mean ± SEM (n ≥ 6 per group, one-way ANOVA with Dunnett’s multicomparison test vs HFD group). (B) 1H-NMR metabolic profiling in liver tissues. (C) Oxygen Consumption Rate (OCR) and Extracellular Acidifcation Rate (ECAR) in HepG2 hepatocytes. Measurements of basal respiration, maximal respiration, ATP production and proton leak in HepG2 hepatocytes treated or not with PBI-4547. (D) Oxidation rate of ^14C-palmitate in HepG2 hepatocytes treated or not with PBI-4547. Data are presented as mean ± SEM (n = 3, Student t test Ctrl vs PBI-4547). See also Fig. S2.
Oxygen consumption rate (OCR) and extracellular acidification rate (ECAR) were measured with a Seahorse XF96 as per manufacturer’s protocol (Agilent). Briefly, 8 × 10^4 HepG2 cells were plated onto Seahorse XF96 96-well plates for 24 h prior to stimulation. The next day, cells were treated with PBI-4547 or with vehicle control for 24 h. Cells were subjected to a mitochondrial stress test with serial injections of Oligomycin (1 μM; ATPase inhibitor), FCCP (1 μM; mitochondrial uncoupler) and Rotenenone/Antimycin A (1 μM; complex I/III inhibitor).

EC50 (PPARγ; HEK293, 24 h, read-out: EC50, PPARγ transcriptional activity): 3.6 µM
Emax (PPARγ; HEK293, of the control agonist rosiglitazone, read-out: relative maximal efficacy, PPARγ transcriptional activity): 38%
Compound: CCCCCc1cc(CCCCC)cc(CC(=O)[O-])c1.[Na+] [PBI-4547, 2-[3,5-dipentylphenyl]acetate sodium salt]
ATP production (HepG2 hepatocytes): decrease
basal oxygen consumption rate (OCR) (HepG2 hepatocytes): did not affect
maximal respiration (HepG2 hepatocytes): decrease
mitochondrial proton leak (HepG2 hepatocytes): significantly increased
